# Results as given in patent publication US10131652B2, “Pyrimidinyloxy benzene derivatives as herbicides” (E. I. DU PONT DE NEMOURS AND COMPANY, priority 2014, dated 2018).
# Assays:
# Type in all cases: in vivo
# [1] = system: blackgrass (Alopecurus myosuroides); assay: Test D pre-/postemergence plant response; conditions: Postemergence; for Plant response rating, Blackgrass: scale 0 to 100, 0 no effect, 100 complete control
# Description: (§1) Seeds of plant species selected from blackgrass (Alopecurus myosuroides), Italian ryegrass (Lolium multiflorum), winter wheat (Triticum aestivum), galium (catchweed bedstraw, Galium aparine), corn (Zea mays), large (Lg) crabgrass (Digitaria sanguinalis), giant foxtail (Setaria faberii), johnsongrass (Sorghum halepense), lambsquarters (Chenopodium album), morningglory (Ipomoea coccinea), yellow nutsedge (Cyperus esculentus), pigweed (Amaranthus retroflexus), ragweed (common ragweed, Ambrosia elatior), soybean (Glycine max), bamyardgrass (Echinochloa crus-galli), oilseed rape (Brassica napus), waterhemp (common waterhemp, Amaranthus rudis), and velvetleaf (Abutilon theophrasti) were planted into a blend of loam soil and sand and treated preemergence with test chemicals formulated in a non-phytotoxic solvent mixture which included a surfactant. At the same time, plants selected from these crop and weed species and also kochia (Kochia scoparia), wild oat (Avena fatua), and chickweed (common chickweed, Stellaria media) were planted in pots containing Redi-Earth® planting medium (Scotts Company, 14111 Scottslawn Road, Marysville, Ohio 43041) comprising spaghnum peat moss, vermiculite, wetting agent and starter nutrients and treated with postemergence applications of test chemicals formulated in the same manner. Plants ranged in height from 2 to 18 cm (1- to 4-leaf stage) for postemergence treatments. Treated plants and controls were maintained in a greenhouse for 13 to 15 days, after which time all species were compared to controls and visually evaluated. Plant response ratings, summarized in Table D, are based on a scale of 0 to 100 where 0 is no effect and 100 is complete control. A dash (-) response means no test result.
# [2] = system: barnyardgrass (Echinochloa crus-galli); assay: Test D pre-/postemergence plant response; conditions: Postemergence; for Plant response rating, Barnyardgrass: scale 0 to 100, 0 no effect, 100 complete control
# Description: as §1
# [3] = system: morningglory (Ipomoea coccinea); assay: Test D pre-/postemergence plant response; conditions: Postemergence
# Description: as §1
# [4] = system: ragweed (common ragweed, Ambrosia elatior); assay: Test D pre-/postemergence plant response; conditions: Postemergence
# Description: as §1
# [5] = system: waterhemp (common waterhemp, Amaranthus rudis); assay: Test D pre-/postemergence plant response; conditions: Postemergence
# Description: as §1
# [6] = system: Italian ryegrass (Lolium multiflorum); assay: Test D pre-/postemergence plant response; conditions: Postemergence
# Description: as §1
# [7] = system: lambsquarters (Chenopodium album); assay: Test D pre-/postemergence plant response; conditions: Postemergence
# Description: as §1
# [8] = system: galium (catchweed bedstraw, Galium aparine); assay: Test D pre-/postemergence plant response; conditions: Postemergence; for Plant response rating, Galium: scale 0 to 100, 0 no effect, 100 complete control
# Description: as §1
# corn (Zea mays) [9] = assay: Test D pre-/postemergence plant response; conditions: Postemergence; for Plant response rating, Corn: scale 0 to 100, 0 no effect, 100 complete control
# Description: as §1
# [10] = system: pigweed (Amaranthus retroflexus); assay: Test D pre-/postemergence plant response; conditions: Postemergence
# Description: as §1
# [11] = system: giant foxtail (Setaria faberii); assay: Test D pre-/postemergence plant response; conditions: Postemergence; for Plant response rating, Foxtail, Giant: scale 0 to 100, 0 no effect, 100 complete control
# Description: as §1
# [12] = system: barnyardgrass (Echinochloa crus-galli); assay: Test B pre-/postemergence plant response
# Method in brief: (§2)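 Scoring used a 0–100 scale (100 = complete control) by visual comparison with untreated plants after approximately 10 days in the greenhouse. Compounds, in surfactant-containing non-phytotoxic solvent, were sprayed onto soil at planting or onto 2–10 cm seedlings.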
# corn (Zea mays) [13] = assay: Test B pre-/postemergence plant response
# Method in brief: as §2
# [14] = system: pigweed (Amaranthus retroflexus); assay: Test B pre-/postemergence plant response
# Method in brief: as §2
# [15] = system: wheat (Triticum aestivum); assay: Test B pre-/postemergence plant response
# Method in brief: as §2
# [16] = system: giant foxtail (Setaria faberii); assay: Test B pre-/postemergence plant response
# Method in brief: as §2
# [17] = 31 g ai/ha, scale 0 to 100 (0 no effect, 100 complete control)
# [18] = 62 g ai/ha, scale 0 to 100, 0 no effect, 100 complete control
# [19] = 125 g ai/ha, scale 0 to 100, 0 no effect, 100 complete control
# [20] = 31 g ai/ha, Preemergence, 0 to 100 scale where 0 is no effect and 100 is complete control
# [21] = 125 g ai/ha, postemergence, 0 to 100 scale, 0 no effect, 100 complete control
# [22] = Postemergence, 31 g ai/ha, 0 to 100 scale (0 no effect, 100 complete control)
# [23] = Preemergence, 125 g ai/ha, 0 to 100 scale (0 no effect, 100 complete control)
structure (smiles),measurement,setting,value
Fc1ccc(Oc2ncc(Cl)cn2)c(-c2cc(C(F)(Cl)Cl)on2)c1 [Compound 221],"Plant response rating (scale 0 to 100), Blackgrass",[1]; 16 g ai/ha,5
same,Blackgrass plant response rating,[1]; [17],10
same,"Plant response rating, Blackgrass",[1]; 62 g ai/ha,5
same,"Plant response rating, Blackgrass",[1]; 125 g ai/ha,40
same,"Plant response rating (scale 0 to 100), Barnyardgrass",[2]; 16 g ai/ha,0
same,Barnyardgrass plant response rating,[2]; [17],5
same,"Plant response rating, Barnyardgrass",[2]; 62 g ai/ha,5
same,"Plant response rating, Barnyardgrass",[2]; 125 g ai/ha,10
same,"Plant response rating (scale 0 to 100), Morningglory",[3]; 16 g ai/ha,65
same,Morningglory plant response rating,[3]; [17],65
same,Morningglory plant response rating,[3]; [18],80
same,"Plant response rating, Morningglory",[3]; [19],85
same,"Plant response rating (scale 0 to 100), Ragweed",[4]; 16 g ai/ha,35
same,Ragweed plant response rating,[4]; [17],50
same,Ragweed plant response rating,[4]; [18],45
same,"Plant response rating, Ragweed",[4]; [19],75
same,"Plant response rating (scale 0 to 100), Waterhemp",[5]; 16 g ai/ha,70
same,Waterhemp plant response rating,[5]; [17],85
same,Waterhemp plant response rating,[5]; [18],100
same,"Plant response rating, Waterhemp",[5]; [19],100
same,"Plant response rating (scale 0 to 100), Ryegrass, Italian",[6]; 16 g ai/ha,5
same,"Ryegrass, Italian plant response rating",[6]; [17],5
same,"Ryegrass, Italian plant response rating",[6]; [18],20
same,"Plant response rating, Ryegrass, Italian",[6]; [19],10
same,"Plant response rating (scale 0 to 100), Lambsquarters",[7]; 16 g ai/ha,85
same,Lambsquarters plant response rating,[7]; [17],95
same,Lambsquarters plant response rating,[7]; [18],95
same,"Plant response rating, Lambsquarters",[7]; [19],98
same,"Plant response rating (scale 0 to 100), Galium",[8]; 16 g ai/ha,80
same,Galium plant response rating,[8]; [17],80
same,"Plant response rating, Galium",[8]; 62 g ai/ha,100
same,"Plant response rating, Galium",[8]; 125 g ai/ha,100
same,"Plant response rating (scale 0 to 100), Corn",corn (Zea mays) [9]; 16 g ai/ha,0
same,Corn plant response rating,corn (Zea mays) [9]; [17],0
same,"Plant response rating, Corn",corn (Zea mays) [9]; 62 g ai/ha,5
same,"Plant response rating, Corn",corn (Zea mays) [9]; 125 g ai/ha,10
same,"Plant response rating (scale 0 to 100), Pigweed",[10]; 16 g ai/ha,95
same,Pigweed plant response rating,[10]; [17],95
same,Pigweed plant response rating,[10]; [18],98
same,"Plant response rating, Pigweed",[10]; [19],100
same,"Plant response rating (scale 0 to 100), Foxtail, Giant",[11]; 16 g ai/ha,35
same,"Foxtail, Giant plant response rating",[11]; [17],5
same,"Plant response rating, Foxtail, Giant",[11]; 62 g ai/ha,5
same,"Plant response rating, Foxtail, Giant",[11]; 125 g ai/ha,35
same,"Plant response rating, Barnyardgrass",[12]; [20],20
same,"Plant response rating, Barnyardgrass",[12]; [21],90
same,"Plant response rating, Barnyardgrass",[12]; [22],10
same,Barnyardgrass plant response rating,[12]; [23],90
same,"Plant response rating, Corn",corn (Zea mays) [13]; [21],50
same,"Plant response rating, Corn",corn (Zea mays) [13]; [22],20
same,"Plant response rating, Pigweed",[14]; [20],100
same,"Plant response rating, Pigweed",[14]; [21],90
same,"Plant response rating, Pigweed",[14]; [22],90
same,Pigweed plant response rating,[14]; [23],100
same,"Plant response rating, Wheat",[15]; [21],30
same,"Plant response rating, Wheat",[15]; [22],20
same,"Plant response rating, Foxtail, Giant",[16]; [20],50
same,"Plant response rating, Foxtail, Giant",[16]; [21],90
same,"Plant response rating, Foxtail, Giant",[16]; [22],10
same,"Foxtail, Giant plant response rating",[16]; [23],90
